From the NIST ThermoML archive (doi:10.1021/je060486k)

Assay: cn = amount concentration of the nth substance listed, in mol/dm3
Settings: 298.15 K; for surface tension liquid-gas: Wilhelmy plate method; for kinematic viscosity / mass density / speed of sound: 101 kPa, Liquid; for kinematic viscosity: Capillary tube (Ostwald / Ubbelohde) method

CCCCCC[N+](C)(C)C.[Br-] [hexyltrimethylammonium bromide] + O
Settings | kinematic viscosity [m2/s] | mass density [kg/m3] | speed of sound [m/s] | surface tension liquid-gas [mN/m]
c1 = 0.1 | 9.149e-07 | 1000.32 | 1510.6 | 51.6
c1 = 0.2 | 9.406e-07 | 1003.85 | 1524.9 | 44.3
c1 = 0.3 | 9.727e-07 | 1006.97 | 1537.3 | 41.1
c1 = 0.4 | 1.011e-06 | 1010.42 | 1550.5 | 38.3
c1 = 0.45 | 1.033e-06 | 1012.06 | 1557.7 | 36.8
c1 = 0.5 | 1.056e-06 | 1013.74 | 1562.9 | 35.8
c1 = 0.6 | 1.108e-06 | 1017.19 | 1575.3 | 34
c1 = 0.7 | 1.166e-06 | 1021.02 | 1588.6 | 32.5
c1 = 0.8 | 1.23e-06 | 1024.21 | 1599.1 | 31.2
c1 = 0.9 | 1.301e-06 | 1027.68 | 1610 | 30.5
c1 = 1 | 1.379e-06 | 1031.33 | 1620.6 | 29.9
c1 = 1.1 | 1.463e-06 | 1034.12 | 1628.1 | 29.5
c1 = 1.3 | 1.65e-06 | 1041.07 | 1644.8 | 29.3
c1 = 1.5 | 1.863e-06 | 1047.62 | 1652.1 | 29.1
c1 = 1.7 | 2.101e-06 | 1054.38 | 1660 | 29.1
c1 = 2 | 2.508e-06 | 1064.23 | 1670.3 | 28.9

O [water] + CCCCCC[N+](C)(C)C.[Br-]
c2 = 0
Settings | kinematic viscosity [m2/s] | surface tension liquid-gas [mN/m]
– | 8.957e-07 | 72.5

O [water] + CCCCCCCC[N+](C)(C)C.[Br-]
c2 = 0
Settings | kinematic viscosity [m2/s] | surface tension liquid-gas [mN/m]
– | 8.957e-07 | 72.5

CCCCCCCC[N+](C)(C)C.[Br-] [octyl trimethyl ammonium bromide] + O
Settings | kinematic viscosity [m2/s] | mass density [kg/m3] | speed of sound [m/s] | surface tension liquid-gas [mN/m]
c1 = 0.02 | 8.99e-07 | 997.62 | 1500.1 | 69.4
c1 = 0.04 | 9.033e-07 | 998.2 | 1503.1 | 63.1
c1 = 0.06 | 9.083e-07 | 998.73 | 1506.3 | 59.5
c1 = 0.08 | 9.14e-07 | 999.23 | 1510 | 54.6
c1 = 0.1 | 9.2e-07 | 999.68 | 1513.1 | 51.1
c1 = 0.12 | 9.276e-07 | 1000.25 | 1516.4 | 48.9
c1 = 0.14 | 9.355e-07 | 1000.79 | 1520.3 | 46.5
c1 = 0.16 | 9.441e-07 | 1001.62 | 1522.7 | 44
c1 = 0.18 | 9.534e-07 | 1001.9 | 1525.8 | 41.7
c1 = 0.2 | 9.636e-07 | 1002.54 | 1529.6 | 39.8
c1 = 0.3 | 1.025e-06 | 1005 | 1540 | 36.4
c1 = 0.4 | 1.103e-06 | 1008.09 | 1546.5 | 35.8
c1 = 0.5 | 1.2e-06 | 1010.5 | 1549.2 | 35.5
c1 = 0.6 | 1.315e-06 | 1013.19 | 1552.2 | 35.4
c1 = 0.8 | 1.598e-06 | 1018.07 | 1557.4 | 35.2
c1 = 1 | 1.953e-06 | 1022.98 | 1562.7 | 35.1

O [water] + CCCCCCCCCC[N+](C)(C)C.[Br-]
c2 = 0
Settings | kinematic viscosity [m2/s] | surface tension liquid-gas [mN/m]
– | 8.956e-07 | 72.5

CCCCCCCCCC[N+](C)(C)C.[Br-] [N,N,N-trimethyl-1-decanaminium bromide] + O
Settings | kinematic viscosity [m2/s] | mass density [kg/m3] | speed of sound [m/s] | surface tension liquid-gas [mN/m]
c1 = 0.001 | 8.975e-07 | 997.11 | 1497.3 | 65.4
c1 = 0.005 | 8.99e-07 | 997.25 | 1497.8 | 60.1
c1 = 0.01 | 9.048e-07 | 997.37 | 1498.7 | 57.6
c1 = 0.02 | 9.14e-07 | 997.58 | 1500.8 | 49.7
c1 = 0.03 | 9.224e-07 | 997.85 | 1502.6 | 43.4
c1 = 0.04 | 9.35e-07 | 998.06 | 1504.3 | 38
c1 = 0.05 | 9.449e-07 | 998.33 | 1506.3 | 36.9
c1 = 0.06 | 9.56e-07 | 998.52 | 1508 | 36.1
c1 = 0.07 | 9.642e-07 | 998.79 | 1509.2 | 35.5
c1 = 0.08 | 9.78e-07 | 999 | 1509.7 | 35.2
c1 = 0.1 | 1.002e-06 | 999.37 | 1510.1 | 35.2
c1 = 0.12 | 1.024e-06 | 999.77 | 1510.6 | 35
c1 = 0.15 | 1.062e-06 | 1000.4 | 1511.1 | 35.2
c1 = 0.2 | 1.117e-06 | 1001.22 | 1511.7 | 35
c1 = 0.25 | 1.181e-06 | 1002.09 | 1512.4 | 35.1
